Test results taken from US5693672A, “3,4,5-substituted benzoylguanidines, process for their preparation, their use as a medicament or diagnostic and medicament containing them” (priority 1992, dated 1997).
Counter-ions that a name gives are not always drawn.

How the values were obtained:
[1] = target: T1, Na^+ /H^+ exchanger of rabbit erythrocytes (Oryctolagus cuniculus, UniProt P23791); assay: Inhibition of the Na^+ /H^+ exchanger of rabbit erythrocytes (amiloride-sensitive Na^+ influx, flame photometry); format: cell-based, White New Zealand rabbits; conditions: pH 7.4, 37° C.
T1 construct: endogenous in cells; host or cells: erythrocytes in blood from the ear arteries of cholesterol-fed White New Zealand rabbits
T1 sequence (P23791 whole entry): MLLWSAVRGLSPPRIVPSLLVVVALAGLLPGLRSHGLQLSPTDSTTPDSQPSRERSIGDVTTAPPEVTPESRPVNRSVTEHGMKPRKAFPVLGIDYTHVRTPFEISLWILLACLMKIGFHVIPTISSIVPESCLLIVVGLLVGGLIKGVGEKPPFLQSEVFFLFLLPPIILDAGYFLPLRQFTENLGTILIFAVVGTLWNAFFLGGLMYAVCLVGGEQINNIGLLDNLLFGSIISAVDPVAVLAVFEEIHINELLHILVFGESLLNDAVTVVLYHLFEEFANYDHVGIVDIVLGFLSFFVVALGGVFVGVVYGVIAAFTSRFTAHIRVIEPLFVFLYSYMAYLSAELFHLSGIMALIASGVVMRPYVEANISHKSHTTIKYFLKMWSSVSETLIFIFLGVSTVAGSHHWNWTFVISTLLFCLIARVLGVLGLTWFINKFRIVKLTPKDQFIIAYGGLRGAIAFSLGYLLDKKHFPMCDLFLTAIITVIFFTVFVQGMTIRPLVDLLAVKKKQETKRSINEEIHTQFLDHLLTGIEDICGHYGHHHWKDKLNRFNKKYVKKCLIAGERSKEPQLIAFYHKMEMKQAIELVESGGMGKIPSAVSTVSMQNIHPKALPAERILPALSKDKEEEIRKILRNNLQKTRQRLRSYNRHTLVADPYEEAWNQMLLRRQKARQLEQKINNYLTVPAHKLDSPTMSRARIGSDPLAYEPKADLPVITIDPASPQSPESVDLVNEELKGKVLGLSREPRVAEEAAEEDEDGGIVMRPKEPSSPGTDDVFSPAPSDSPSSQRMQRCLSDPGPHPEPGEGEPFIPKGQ
Source text: Inhibitors of the Na^+ /H^+ exchanger of rabbit erythrocytes:
White New Zealand rabbits (Ivanovas) received a standard diet containing 2% cholesterol for six weeks in order to activate Na^+ /H^+ exchange and thus to be able to determine the Na^+ influx into the erythrocytes via Na^+ /H^+ exchange by flame photometry. The blood was taken from the ear arteries and rendered incoagulable by 25 IU/ml of potassium heparin. A part of each sample was used for the duplicate determination of the hematocrit by centrifugation. Aliquots of 100 μl in each case were used to measure the Na^+ starting content of the erythrocytes.
In order to determine the amiloride-sensitive sodium influx, 100 μl of each blood sample were incubated at pH 7.4 and 37° C. in 5 ml in each case of a hyperosmolar salt/sucrose medium (mmol/1:140 NaCl, 3 KCl, 150 sucrose, 0.1 ouabain, 20 tris(hydroxymethyl)aminomethane). The erythrocytes were then washed three times with ice-cold MgCl2 /ouabain solution (mmol/1:112 MgCl2, 0.1 ouabain) and hemolized in 2.0 ml of distilled water. The intracellular sodium content was determined by flame photometry.
The Na^+ net influx was calculated from the difference between sodium starting values and the sodium content of the erythrocytes after incubation. The amiloride-inhibitable sodium influx resulted from the difference between the sodium content of the erythrocytes after incubation with and without 3×10^-4 mol/l amiloride. The process was also carried out in this manner in the case of the compounds according to the invention.

[2] = tested on: artificially induced ventricular fibrillation; conditions: rat hearts, isolated; cited from earlier work
cardiac arrhythmias = conditions: in vivo; cited from earlier work

Structure (SMILES)	IC50 [1] [nM]	other results
CS(=O)(=O)c1cc(C(=O)N=C(N)N)ccc1-c1ccc2ccccc2c1 [Example 2, 3-Methylsulfonyl-4-(2-naphthyl)benzoylguanidine hydrochloride]	500	–
CS(=O)(=O)c1cc(C(=O)N=C(N)N)ccc1-c1cccc(-c2ccccc2)c1 [Example 3, 3-Methylsulfonyl-4-(3-biphenyl)benzoylguanidine hydrochloride]	> 1000	–
CS(=O)(=O)c1cc(C(=O)N=C(N)N)ccc1C1CCCCC1 [Example 5, 4-Cyclohexyl-3-methylsulfonylbenzoylguanidine hydrochloride]	1700	–
CS(=O)(=O)c1cc(C(=O)N=C(N)N)ccc1-c1ccccn1 [Example 6, 3-Methylsulfonyl-4-(2'-pyridyl)benzoylguanidine hydrochloride]	> 1000	–
CS(=O)(=O)c1cc(C(=O)N=C(N)N)ccc1C#Cc1ccccc1 [Example 7, 3-Methylsulfonyl-4-[(2'-phenyl)ethynyl]benzoylguanidine hydrochloride]	200	–
CS(=O)(=O)c1cc(C(=O)N=C(N)N)ccc1CCc1ccccc1 [Example 9, 3-Methylsulfonyl-4-phenylethylbenzoylguanidine hydrochloride]	900	–
CS(=O)(=O)c1cc(C(=O)N=C(N)N)ccc1C1CCCC1 [Example 10, 4-Cyclopentyl-3-methylsulfonylbenzoylguanidine hydrochloride]	100	–
CS(=O)(=O)c1cc(C(=O)N=C(N)N)cc(C2CCCC2)c1 [Example 13, 3-Cyclopentyl-5-methylsulfonylbenzoylguanidine hydrochloride]	3000	–
NC(N)=NC(=O)c1nc(Cl)c(N)nc1N [amiloride]	–	suppression of artificially induced ventricular fibrillation [2]: suppressed completely; accompanying side effects (cardiac arrhythmias): hypotensive and saluretic action; antiarrhythmic effect (cardiac arrhythmias): only slightly pronounced
CCN(c1nc(N)c(C(=O)N=C(N)N)nc1Cl)C(C)C [ethylisopropylamiloride, Ethylisopropylamiloride]	–	potency relative to amiloride in the ventricular fibrillation model [2]: even more potent than amiloride
